According to patent publication US20240270751A1, “Pyrazolopyridinone Compounds” (BeiGene Ltd., priority 2021, published 2024):

Experiments:
DGKα = DGKα (Homo sapiens (Human), UniProt P23743); assay: Biochemical DGK IC50 assay, DGKα ADP-Glo assay; conditions: 7.5 nM enzyme, 140 μM ATP, 80 μM DAG
Procedure: (§1) Enzymatic reactions of DGKζ, DGKα and DGKδ were performed using ADP-Glo assay with lipid micelle substrate. […] Full length DGKα (D21-10BG, SignalChem) and full length DGKδ (D23-10G, SignalChem) were purchased. Lipid micelle was prepared by dissolving DAG (Sigma, 317505-10MG) and PS (Sigma, P7769-100MG) with chloroform which was furtherly removed by rotary evaporation. The resulted product was resuspended in buffer containing 25 mM HEPES pH 7.0, 0.5 mM EDTA and 160 mM Octyl β-D glucopyranoside by vigorous mixing and ultrasonic (IID, Scientz).
(§2) The ranges of compounds final concentration were 1.55˜10000 nM or 23.3˜150000 nM. 3 μL 2× enzyme solution was added to wells.

DGKζ = DGKζ (Homo sapiens (Human), UniProt Q13574); assay: Biochemical DGK IC50 assay, DGKζ ADP-Glo assay; conditions: 0.5 nM enzyme, 140 μM ATP, 80 μM DAG; read-out: DGKζ ADP-Glo assay IC50
Procedure: as §1, §2
Human His-TEV-DGK-zeta-pFastBac1 and human baculovirus samples was generated using the Bac-to-Bac baculovirus expression system (Invitrogen) according to the manufacturer's protocol. The DNA used for expression of DGK-zeta, have SEQ ID Nos: 1. Baculovirus amplification was achieved using infected SF9 cells at 1:2000 virus/cells ratios, and grown for 96 hours at 27° C. post-transfected.
The expression scaled up for each protein was carried out in the […] from CORNING. 4 L of 3×10^6 cells/mL Sf9 cells (Expression System, Invitrogen) grown in SF900™ II SFM insect medium (Expression System) was infected with virus stock at 1:200 virus/cells ratio, and grown for 48 hours at 27° C. post-transfection. The infected cell culture was harvested by centrifugation at 6000 rpm for 15 min 4° C. in a SORVALL LYNX6000 centrifuge. The cell pellets were stored at −80° C.
Full length human DGKζ produced as described above, was purified from Sf9 baculovirus-infected insect cell paste. The cells were lysed using sonication method, and the lysates were clarified by centrifugation.

DGKα, sequence (P23743 whole entry): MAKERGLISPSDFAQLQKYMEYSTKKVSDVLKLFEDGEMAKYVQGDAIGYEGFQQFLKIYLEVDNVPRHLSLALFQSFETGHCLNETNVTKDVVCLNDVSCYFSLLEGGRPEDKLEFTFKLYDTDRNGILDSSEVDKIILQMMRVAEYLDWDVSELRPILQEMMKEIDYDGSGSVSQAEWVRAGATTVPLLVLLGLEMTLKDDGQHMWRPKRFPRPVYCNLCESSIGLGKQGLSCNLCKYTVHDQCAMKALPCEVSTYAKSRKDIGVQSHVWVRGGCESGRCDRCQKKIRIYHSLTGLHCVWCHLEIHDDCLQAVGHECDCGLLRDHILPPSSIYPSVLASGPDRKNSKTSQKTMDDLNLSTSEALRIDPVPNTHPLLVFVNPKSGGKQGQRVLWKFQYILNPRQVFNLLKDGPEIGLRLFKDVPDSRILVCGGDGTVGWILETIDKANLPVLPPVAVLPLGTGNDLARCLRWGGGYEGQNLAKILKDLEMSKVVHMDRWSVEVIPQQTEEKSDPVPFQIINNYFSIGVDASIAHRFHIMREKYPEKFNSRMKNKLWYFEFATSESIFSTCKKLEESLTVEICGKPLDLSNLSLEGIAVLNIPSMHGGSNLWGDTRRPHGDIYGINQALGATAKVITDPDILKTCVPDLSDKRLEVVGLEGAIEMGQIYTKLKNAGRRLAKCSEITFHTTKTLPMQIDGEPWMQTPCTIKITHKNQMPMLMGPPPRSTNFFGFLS
DGKζ, sequence (Q13574 other isoform, or with tags, fused parts or gaps): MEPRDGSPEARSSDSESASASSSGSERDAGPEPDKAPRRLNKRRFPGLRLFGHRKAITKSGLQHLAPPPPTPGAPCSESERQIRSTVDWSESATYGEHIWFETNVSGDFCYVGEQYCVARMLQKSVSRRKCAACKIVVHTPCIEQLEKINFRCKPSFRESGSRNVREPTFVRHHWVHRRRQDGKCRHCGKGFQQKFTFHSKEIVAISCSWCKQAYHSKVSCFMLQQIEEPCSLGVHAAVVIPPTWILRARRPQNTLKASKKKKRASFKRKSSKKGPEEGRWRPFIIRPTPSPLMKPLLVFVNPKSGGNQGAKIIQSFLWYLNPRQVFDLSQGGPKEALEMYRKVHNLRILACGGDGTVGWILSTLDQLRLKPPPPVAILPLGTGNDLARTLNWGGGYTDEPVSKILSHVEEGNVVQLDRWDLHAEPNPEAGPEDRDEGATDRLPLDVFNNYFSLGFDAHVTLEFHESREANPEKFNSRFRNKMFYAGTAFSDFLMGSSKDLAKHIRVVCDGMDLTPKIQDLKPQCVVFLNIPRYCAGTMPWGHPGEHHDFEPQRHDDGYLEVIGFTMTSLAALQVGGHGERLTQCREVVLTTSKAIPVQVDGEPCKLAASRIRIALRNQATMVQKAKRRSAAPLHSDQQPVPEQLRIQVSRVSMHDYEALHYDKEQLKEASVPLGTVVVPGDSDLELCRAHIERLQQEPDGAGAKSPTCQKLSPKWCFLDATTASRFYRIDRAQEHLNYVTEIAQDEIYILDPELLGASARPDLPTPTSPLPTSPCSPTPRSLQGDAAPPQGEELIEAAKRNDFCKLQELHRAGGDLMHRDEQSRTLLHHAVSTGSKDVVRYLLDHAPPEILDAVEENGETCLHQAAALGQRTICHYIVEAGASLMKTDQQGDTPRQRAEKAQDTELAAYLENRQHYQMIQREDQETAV

SMILES | IC50 (DGKα) | IC50 (DGKζ)
CC[C@H]1CN(C(C)c2cnn(CC)c2C(F)(F)F)[C@H](CC)CN1c1cc(=O)n(C)c2cn(CC#N)nc12 (single isomer, unassigned) [Compound A119b] | 4.56 µM | 0.964 µM
CC[C@H]1CN(C(C)c2ccc(C(N)=O)cc2)[C@H](CC)CN1c1cc(=O)n(C)c2cn(CC#N)nc12 (single isomer, unassigned) [Compound A120a] | 0.176 µM | 2.93 µM
CC[C@H]1CN(C(C)c2ccc(C(N)=O)cc2)[C@H](CC)CN1c1cc(=O)n(C)c2cn(CC#N)nc12 (single isomer, unassigned) [Compound A120b] | 2.26 µM | > 10 µM
CC[C@H]1CN(C(C)c2cccc(CO)c2)[C@H](CC)CN1c1cc(=O)n(C)c2cn(CC#N)nc12 (single isomer, unassigned) [Compound A121a] | 1.3 µM | 3.02 µM
CC[C@H]1CN(C(C)c2ccc(C)cc2)[C@H](CC)CN1c1cc(=O)n(C)c2cn(CC#N)nc12 (single isomer, unassigned) [Compound A127a] | 0.037 µM | 0.084 µM
CC[C@H]1CN(C(C)c2ccc(C)cc2)[C@H](CC)CN1c1cc(=O)n(C)c2cn(CC#N)nc12 (single isomer, unassigned) [Compound A127b] | 0.177 µM | 3.71 µM
CC[C@H]1CN(C(C)c2ccc(F)cc2F)[C@H](CC)CN1c1cc(=O)n(C)c2cn(CC#N)nc12 (single isomer, unassigned) [Compound A132a] | 0.0089 µM | 0.0059 µM
CC[C@H]1CN(C(C)c2ccc(F)cc2F)[C@H](CC)CN1c1cc(=O)n(C)c2cn(CC#N)nc12 (single isomer, unassigned) [Compound A132b] | 0.33 µM | 1.78 µM
CC[C@H]1CN(C(C)c2ccc(C(F)(F)F)nc2)[C@H](CC)CN1c1cc(=O)n(C)c2cn(CC#N)nc12 (single isomer, unassigned) [Compound A135a] | 0.398 µM | 0.097 µM
CC[C@H]1CN(C(C)c2ccc(C(F)(F)F)nc2)[C@H](CC)CN1c1cc(=O)n(C)c2cn(CC#N)nc12 (single isomer, unassigned) [Compound A135b] | 0.428 µM | 1.3 µM
CC[C@H]1CN(C(C)c2ccc3nccnc3c2)[C@H](CC)CN1c1cc(=O)n(CC(F)F)c2cn(CC#N)nc12 (single isomer, unassigned) [Compound A139a] | > 10 µM | 0.112 µM
CC[C@H]1CN(C(C)c2ccc3nccnc3c2)[C@H](CC)CN1c1cc(=O)n(CC(F)F)c2cn(CC#N)nc12 (single isomer, unassigned) [Compound A139b] | > 10 µM | 5.74 µM
CC[C@H]1CN(C2CCc3ccccc32)[C@H](CC)CN1c1cc(=O)n(C)c2cn(CC#N)nc12 (single isomer, unassigned) [Compound A149a] | 4.12 µM | 4.16 µM
CC[C@H]1CN(C2CCc3ccccc32)[C@H](CC)CN1c1cc(=O)n(C)c2cn(CC#N)nc12 (single isomer, unassigned) [Compound A149b] | 0.191 µM | 2.25 µM
CC[C@H]1CN(C(C)c2ccc(F)cc2OC)[C@H](CC)CN1c1cc(=O)n(CCO)c2cn(CC#N)nc12 (single isomer, unassigned) [Compound A153a] | > 10 µM | 9.34 µM
CC[C@H]1CN(C(C)c2ccc(F)cc2OC)[C@H](CC)CN1c1cc(=O)n(CCO)c2cn(CC#N)nc12 (single isomer, unassigned) [Compound A153b] | > 10 µM | 0.545 µM
CC[C@H]1CN(C(C)c2cnc3ccccc3n2)[C@H](CC)CN1c1cc(=O)n(C)c2cn(CC#N)nc12 (single isomer, unassigned) [Compound A155a] | 0.728 µM | 1.38 µM
CC[C@H]1CN(C(C)c2cnc3ccccc3n2)[C@H](CC)CN1c1cc(=O)n(C)c2cn(CC#N)nc12 (single isomer, unassigned) [Compound A155b] | 0.032 µM | 0.0076 µM
CC[C@@H]1CN(c2c(Br)c(=O)n(C)c3cn(CC#N)nc23)CCN1C(C)c1ccc2nccnc2c1 (single isomer, unassigned) [Compound A179b] | > 10 µM | > 10 µM

The next lines start with the values.

IC50 (DGKα) | IC50 (DGKζ) | SMILES
> 10 µM | > 10 µM | CC[C@@H]1CN(c2cc(=O)n(C)c3cn(CC#N)nc23)CCN1C(C)c1ccc2nccnc2c1 (single isomer, unassigned) [Compound A161a]
78.2 µM | 0.093 µM | CC[C@@H]1CN(c2cc(=O)n(C)c3cn(CC#N)nc23)CCN1C(C)c1ccc2nccnc2c1 (single isomer, unassigned) [Compound A161b]
> 10 µM | 1.05 µM | CC[C@@H]1CN(c2c(Cl)c(=O)n(C)c3cn(CC#N)nc23)CCN1C(C)c1ccc2nccnc2c1 (single isomer, unassigned) [Compound A162b]
8.34 µM | 0.065 µM | CC[C@H]1CN(C(C)c2ccc(F)cc2OC(F)F)[C@H](CC)CN1c1cc(=O)n(C)c2cn(CC#N)nc12 (single isomer, unassigned) [Compound A171a]
> 10 µM | 1.36 µM | CC[C@H]1CN(C(C)c2ccc(F)cc2OC(F)F)[C@H](CC)CN1c1cc(=O)n(C)c2cn(CC#N)nc12 (single isomer, unassigned) [Compound A171b]
20.4 µM | 0.014 µM | CC[C@H]1CN(C(C)c2ccc(F)cc2C(F)F)[C@H](CC)CN1c1cc(=O)n(C)c2cn(CC#N)nc12 (single isomer, unassigned) [Compound A172b]
> 10 µM | 0.502 µM | COC(=O)C1CN(c2cc(=O)n(C)c3cn(CC#N)nc23)CCN1[C@@H](C)c1ccc2nccnc2c1 (single isomer, unassigned) [Compound A173a]
> 10 µM | > 10 µM | COC(=O)C1CN(c2cc(=O)n(C)c3cn(CC#N)nc23)CCN1[C@H](C)c1ccc2nccnc2c1 (single isomer, unassigned) [Compound A173b]
8.21 µM | 0.07 µM | CC[C@@H]1CN(c2cc(=O)[nH]c3cn(CC#N)nc23)[C@@H](C)CN1C(C)c1ccc2nccnc2c1 (single isomer, unassigned) [Compound A177a]
0.73 µM | 0.015 µM | CC[C@H]1CN(C(C)c2ccc(OC(F)F)nc2)[C@H](CC)CN1c1cc(=O)n(C)c2cn(CC#N)nc12 (single isomer, unassigned) [Compound A180a]
7.74 µM | 0.11 µM | CC[C@@H]1CN(c2nc(=O)[nH]c3cn(CC#N)nc23)[C@@H](C)CN1C(C)c1ccc2nccnc2c1 (single isomer, unassigned) [Compound A183a]
> 10 µM | 2.08 µM | CC[C@@H]1CN(c2nc(=O)[nH]c3cn(CC#N)nc23)[C@@H](C)CN1C(C)c1ccc2nccnc2c1 (single isomer, unassigned) [Compound A183b]
> 10 µM | > 10 µM | CC[C@H]1CN(C(C)c2nc3cccnc3n2CC)[C@H](CC)CN1c1cc(=O)n(C)c2cn(CC#N)nc12 (single isomer, unassigned) [Compound A185a]
3.99 µM | 0.034 µM | CC[C@H]1CN(C(C)c2nc3cccnc3n2CC)[C@H](CC)CN1c1cc(=O)n(C)c2cn(CC#N)nc12 (single isomer, unassigned) [Compound A185b]
5.74 µM | 5.92 µM | CC[C@H]1CN(C(C)c2ncc(Cl)n2CC)[C@H](CC)CN1c1cc(=O)n(C)c2cn(CC#N)nc12 (single isomer, unassigned) [Compound A187a]
6.32 µM | 0.199 µM | CC[C@H]1CN(C(C)c2ncc(Cl)n2CC)[C@H](CC)CN1c1cc(=O)n(C)c2cn(CC#N)nc12 (single isomer, unassigned) [Compound A187b]
6.35 µM | 0.155 µM | CC[C@@H]1CN(c2c(F)c(=O)[nH]c3cn(CC#N)nc23)[C@@H](C)CN1C(C)c1ccc2nccnc2c1 (single isomer, unassigned) [Compound A194a]
> 10 µM | 1.35 µM | CC[C@H]1CN(C(C)c2ccc(F)cc2C(F)(F)F)[C@H](CC)CN1c1cc(=O)n(C)c2cn(CC#N)nc12 (single isomer, unassigned) [Compound A196a]
93.2 µM | 0.038 µM | CC[C@H]1CN(C(C)c2ccc(F)cc2C(F)(F)F)[C@H](CC)CN1c1cc(=O)n(C)c2cn(CC#N)nc12 (single isomer, unassigned) [Compound A196b]
> 10 µM | 2.05 µM | CC[C@H]1CN(C(C)c2ccccc2C(F)(F)F)[C@H](CC)CN1c1cc(=O)n(C)c2cn(CC#N)nc12 (single isomer, unassigned) [Compound A197a]
> 10 µM | 0.169 µM | CC[C@H]1CN(C(C)c2ccccc2C(F)(F)F)[C@H](CC)CN1c1cc(=O)n(C)c2cn(CC#N)nc12 (single isomer, unassigned) [Compound A197b]
